We go through 21 compounds from patent US10206909B2, “3-(1H-pyrrolo[2,3-B]pyridin-2-yl)-1H-pyrazolo[4,3-B]pyridines and therapeutic uses thereof” (Samumed, LLC, priority 2015, dated 2019).

In the assay the test system is IL-6 (THP-1 cells). Nature of the assay: IL-6 inhibition in LPS-stimulated THP-1 cells (HTRF). Type of assay: cell-based. As to conditions: Homo sapiens; for EC50: THP-1 cells, LPS 500 ng/mL, 22 hours, IL6 HTRF; for inhibition at 10 µM: given where EC50 >10 μM, THP-1, IL6, read-out: percent inhibition at 10 μM. The method, then:
Human Monocyte Cell Culture: Human monocyte cell line (THP-1 cells; Catalog # TIB-202, ATCC, Manassas, Va.) were cultured in Roswell Park Memorial Institute (RPMI) 1640 Medium (Catalog #21870-100, Buffalo, N.Y.) with 1% L-glutamine, 1% HEPES, 1% Sodium Pyruvate, 2% Sodium Bicarbonate supplemented with 100 units/mL penicillin, 50 μg/mL streptomycin, 2-mercaptoethanol (0.05 mM) [basal medium] and 10% fetal bovine serum (Catalog #16140089, Life Technologies, Carlsbad, Calif.) at 37° C. and 5% CO2.
Compound Screening: THP-1 cells were cultured in basal media with 1% FBS for 24 hours before the start of the assay. Each compound was dissolved in DMSO as a 10 mM stock and used to prepare compound source plates. Serial dilution (1:3, 10-point dose-response curves starting from 10 μM) and compound transfer was performed using the ECHO 550 (Labcyte, Sunnyvale, Calif.) into 384-well white low volume assay plates (Greiner Bio-One) with appropriate DMSO backfill for a final DMSO concentration of 0.1%. THP-1 cells were plated at 5000 cells/well in the 384-well plates and incubated at 37° C. for 2 h. 500 ng/mL of LPS was added after 2 hours and cells were incubated for another 22 hours at 37° C. Plates were spun in a centrifuge for 1 minute at […] and a mixture of anti-IL6 XL665, and anti-IL6 Cryptate diluted in reconstitution buffer (Cisbio Inc.) was added to each well. Following incubation for 3 hrs at room temperature, Homogeneous Time-Resolved Fluorescence (HTRF) was measured using the Envision (Perkin Elmer) at 665 nm and […]. The ratio of fluorescence at 665 nm to 620 nm was used as a readout for IL6 quantification. All samples were processed in duplicate. Readings were normalized to DMSO treated cells and normalized activities were utilized for EC50 calculations using the dose-response log (inhibitor) vs. response —variable slope (four parameters) nonlinear regression feature available in GraphPad Prism 5.0 (or Dotmatics). For EC50 of >10 μM, the percent inhibition at 10 μM is provided.
For orientation: TR-FRET usually uses a lanthanide donor and a delayed reading to cut background.

The term EC50 denotes the concentration at which the effect is half-maximal. Read a high EC50 as a less potent agent. For orientation: inhibition means how much of the control response was suppressed.

Some results are limits rather than exact numbers.

Consider `Fc1cccc(-c2ccnc3[nH]c(-c4n[nH]c5ccc(-c6cccnc6)nc45)cc23)c1` [Compound 4, 3-(4-(3-Fluorophenyl)-1H-pyrrolo[2,3-b]pyridin-2-yl)-5-(pyridin-3-yl)-1H-pyrazolo[4,3-b]pyridine], for which the EC50 was found to be 1.84 µM.

With `CC(C)(C)C(=O)Nc1cncc(-c2ccc3[nH]nc(-c4cc5c(-c6cccc(F)c6)ccnc5[nH]4)c3n2)c1` [Compound 8, N-(5-(3-(4-(3-Fluorophenyl)-1H-pyrrolo[2,3-b]pyridin-2-yl)-1H-pyrazolo [4,3-b]pyridin-5-yl)pyridin-3-yl)pivalamide], the EC50 was above 10 µM and the inhibition at 10 µM stood at 13.7%.

As to `Cc1ccncc1-c1ccc2[nH]nc(-c3cc4c(-c5ccc(F)cc5)ccnc4[nH]3)c2n1` [Compound 33, 3-(4-(4-Fluorophenyl)-1H-pyrrolo[2,3-b]pyridin-2-yl)-5-(4-methylpyridin-3-yl)-1H-pyrazolo[4,3-b]pyridine], the EC50 is above 10 µM and the inhibition at 10 µM came out at 5.4%.

On to `O=C(Nc1cncc(-c2ccc3[nH]nc(-c4cc5c(-c6ccc(F)cc6)ccnc5[nH]4)c3n2)c1)c1ccccc1` [Compound 39, N-(5-(3-(4-(4-Fluorophenyl)-1H-pyrrolo[2,3-b]pyridin-2-yl)-1H-pyrazolo [4,3-b]pyridin-5-yl)pyridin-3-yl)benzamide], for which the EC50 is above 10 µM and the inhibition at 10 µM was 7.7%.

As for `Fc1ccc(-c2ccnc3[nH]c(-c4n[nH]c5ccc(-c6cncc(CN7CCC(F)(F)C7)c6)nc45)cc23)cc1` [Compound 54, 5-(5-((3,3-Difluoropyrrolidin-1-yl)methyl)pyridin-3-yl)-3-(4-(4-fluorophenyl)-1H-pyrrolo[2,3-b]pyridin-2-yl)-1H-pyrazolo[4,3-b]pyridine], the EC50 was above 10 µM and the inhibition at 10 µM was 34.8%.

For the compound `Fc1ccc(-c2ccnc3[nH]c(-c4n[nH]c5ccc(-c6cncnc6)nc45)cc23)cc1` [Compound 55, 3-(4-(4-Fluorophenyl)-1H-pyrrolo[2,3-b]pyridin-2-yl)-5-(pyrimidin-5-yl)-1H-pyrazolo[4,3-b]pyridine], the EC50 is above 10 µM and the inhibition at 10 µM came to 14.1%.

Compound `CC(C)CC(=O)Nc1cncc(-c2ccc3[nH]nc(-c4cc5c(-c6ccccc6F)ccnc5[nH]4)c3n2)c1` [Compound 58, N-(5-(3-(4-(2-Fluorophenyl)-1H-pyrrolo[2,3-b]pyridin-2-yl)-1H-pyrazolo [4,3-b]pyridin-5-yl)pyridin-3-yl)-3-methylbutanamide] gave an EC50 of 0.1 µM.

Turning to `O=C(Nc1cncc(-c2ccc3[nH]nc(-c4cc5c(-c6ccccc6F)ccnc5[nH]4)c3n2)c1)C1CC1` [Compound 76, N-(5-(3-(4-(2-Fluorophenyl)-1H-pyrrolo[2,3-b]pyridin-2-yl)-1H-pyrazolo [4,3-b]pyridin-5-yl)pyridin-3-yl)cyclopropanecarboxamide], the EC50 was above 10 µM and the inhibition at 10 µM worked out at 42.2%.

Consider `Fc1ccccc1-c1ccnc2[nH]c(-c3n[nH]c4ccc(-c5cncc(CNCc6ccccc6)c5)nc34)cc12` [Compound 80, N-Benzyl-1-(5-(3-(4-(2-fluorophenyl)-1H-pyrrolo[2,3-b]pyridin-2-yl)-1H-pyrazolo[4,3-b]pyridin-5-yl)pyridin-3-yl)methanamine], for which the EC50 was above 10 µM and the inhibition at 10 µM was 18.2%.

In turn, `Fc1ccccc1-c1ccnc2[nH]c(-c3n[nH]c4ccc(-c5ccccn5)nc34)cc12` [Compound 84, 3-(4-(2-Fluorophenyl)-1H-pyrrolo[2,3-b]pyridin-2-yl)-5-(pyridin-2-yl)-1H-pyrazolo[4,3-b]pyridine] gave an EC50 of 0.006 µM.

Take `c1cncc(-c2ccnc3[nH]c(-c4n[nH]c5ccc(-c6ccncc6)nc45)cc23)c1` [Compound 102, 3-(4-(Pyridin-3-yl)-1H-pyrrolo[2,3-b]pyridin-2-yl)-5-(pyridin-4-yl)-1H-pyrazolo[4,3-b]pyridine]: the EC50 is above 10 µM and the inhibition at 10 µM was determined as 23.9%.

In the case of `c1cc(N2CCCCC2)c2cc(-c3n[nH]c4ccc(-c5cncc(CN6CCCCC6)c5)nc34)[nH]c2n1` [Compound 183, 3-(4-(Piperidin-1-yl)-1H-pyrrolo[2,3-b]pyridin-2-yl)-5-(5-(piperidin-1-ylmethyl)pyridin-3-yl)-1H-pyrazolo[4,3-b]pyridine], the EC50 is above 10 µM and the inhibition at 10 µM amounted to 18.2%.

Regarding `c1ccc(-c2ccc3[nH]nc(-c4cc5c(N6CCCCC6)ccnc5[nH]4)c3n2)nc1` [Compound 196, 3-(4-(Piperidin-1-yl)-1H-pyrrolo[2,3-b]pyridin-2-yl)-5-(pyridin-2-yl)-1H-pyrazolo[4,3-b]pyridine], the EC50 was above 10 µM and the inhibition at 10 µM was 46.5%.

Regarding `O=C(Nc1cncc(-c2ccc3[nH]nc(-c4cc5cccnc5[nH]4)c3n2)c1)C1CCCCC1` [Compound 275, N-(5-(3-(1H-Pyrrolo[2,3-b]pyridin-2-yl)-1H-pyrazolo[4,3-b]pyridin-5-yl)pyridin-3-yl)cyclohexanecarboxamide], it took 0.157 µM to reach a half-maximal effect (EC50).

Take `CN(C)c1cncc(-c2ccc3[nH]nc(-c4cc5c(-c6ccoc6)ccnc5[nH]4)c3n2)c1` [Compound 315, 5-(3-(4-(Furan-3-yl)-1H-pyrrolo[2,3-b]pyridin-2-yl)-1H-pyrazolo[4,3-b]pyridin-5-yl)-N,N-dimethylpyridin-3-amine]: the EC50 was determined as 0.418 µM.

As for `O=C(Cc1ccccc1)Nc1cncc(-c2ccc3[nH]nc(-c4cc5c(-c6ccoc6)ccnc5[nH]4)c3n2)c1` [Compound 318, N-(5-(3-(4-(Furan-3-yl)-1H-pyrrolo[2,3-b]pyridin-2-yl)-1H-pyrazolo[4,3-b]pyridin-5-yl)pyridin-3-yl)-2-phenylacetamide], the EC50 is above 10 µM and the inhibition at 10 µM was determined as 46.6%.

In turn, `c1csc(-c2ccnc3[nH]c(-c4n[nH]c5ccc(-c6ccncc6)nc45)cc23)c1` [Compound 354, 5-(Pyridin-4-yl)-3-(4-(thiophen-2-yl)-1H-pyrrolo[2,3-b]pyridin-2-yl)-1H-pyrazolo[4,3-b]pyridine] returned an EC50 of 1.61 µM.

Consider `c1csc(-c2ccnc3[nH]c(-c4n[nH]c5ccc(-c6cncnc6)nc45)cc23)c1` [Compound 363, 5-(Pyrimidin-5-yl)-3-(4-(thiophen-2-yl)-1H-pyrrolo[2,3-b]pyridin-2-yl)-1H-pyrazolo[4,3-b]pyridine], for which the EC50 is above 10 µM and the inhibition at 10 µM was determined as 36.3%.

Turning to `Fc1cccc(-c2ccnc3[nH]c(-c4n[nH]c5ccc(-c6cncc(OCc7ccccc7)c6)nc45)cc23)c1` [Compound 518, 5-(5-(Benzyloxy)pyridin-3-yl)-3-(4-(3-fluorophenyl)-1H-pyrrolo[2,3-b]pyridin-2-yl)-1H-pyrazolo[4,3-b]pyridine], the EC50 was above 10 µM and the inhibition at 10 µM was determined as 9.6%.

As to `Oc1cncc(-c2ccc3[nH]nc(-c4cc5c(-c6ccc(F)cc6)ccnc5[nH]4)c3n2)c1` [Compound 533, 5-(3-(4-(4-Fluorophenyl)-1H-pyrrolo[2,3-b]pyridin-2-yl)-1H-pyrazolo[4,3-b]pyridin-5-yl)pyridin-3-ol], the EC50 was above 10 µM and the inhibition at 10 µM turned out to be 37.1%.

Consider `c1cc(N2CCCCC2)c2cc(-c3n[nH]c4ccc(C5CCNCC5)nc34)[nH]c2n1` [Compound 601, 3-(4-(Piperidin-1-yl)-1H-pyrrolo[2,3-b]pyridin-2-yl)-5-(piperidin-4-yl)-1H-pyrazolo[4,3-b]pyridine], for which the EC50 was determined as 3.5 µM.
